# PubChem BioAssay (NCI)
#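 A five-concentration, 48-hour dose response in 96-well plates underlies each endpoint, interpolated linearly between surrounding concentrations. At the GI50, growth is halved. TGI denotes the concentration required for complete inhibition of growth.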
# Key:
# Experiment in all cases: DTP human tumour cell line panel, 48 h
# TK-10 renal = test system: TK-10 renal
# IGROV1 ovarian = test system: IGROV1 ovarian
# SF-539 CNS = test system: SF-539 CNS
# SR leukemia = test system: SR leukemia
# SF-295 CNS = test system: SF-295 CNS
# MDA-MB-231 breast = test system: MDA-MB-231 breast
# M14 melanoma = test system: M14 melanoma
# UACC-62 melanoma = test system: UACC-62 melanoma
# RPMI-8226 leukemia = test system: RPMI-8226 leukemia
# CCRF-CEM leukemia = test system: CCRF-CEM leukemia
# BT-549 breast = test system: BT-549 breast
# HOP-92 NSCLC = test system: HOP-92 NSCLC
# HCT-15 colon = test system: HCT-15 colon
# OVCAR-5 ovarian = test system: OVCAR-5 ovarian
# OVCAR-4 ovarian = test system: OVCAR-4 ovarian
# MCF7 breast = test system: MCF7 breast
# NCI-H226 lung = test system: NCI-H226 lung
# HT29 colon = test system: HT29 colon
# HS 578T breast = test system: HS 578T breast
# 786-0 renal = test system: 786-0 renal
# OVCAR-8 ovarian = test system: OVCAR-8 ovarian
# MALME-3M melanoma = test system: MALME-3M melanoma
# T-47D breast = test system: T-47D breast
# SK-MEL-5 melanoma = test system: SK-MEL-5 melanoma
# SF-268 CNS = test system: SF-268 CNS
# U251 CNS = test system: U251 CNS
# HCT-116 colon = test system: HCT-116 colon
# RXF 393 renal = test system: RXF 393 renal
# SNB-19 CNS = test system: SNB-19 CNS
# HCC-2998 colon = test system: HCC-2998 colon
# HOP-62 NSCLC = test system: HOP-62 NSCLC
# LOX IMVI melanoma = test system: LOX IMVI melanoma
# SK-MEL-2 melanoma = test system: SK-MEL-2 melanoma
# COLO 205 colon = test system: COLO 205 colon
# CAKI-1 renal = test system: CAKI-1 renal
# K-562 leukemia = test system: K-562 leukemia
# SNB-75 CNS = test system: SNB-75 CNS
# MOLT-4 leukemia = test system: MOLT-4 leukemia
# NCI/ADR-RES ovarian = test system: NCI/ADR-RES ovarian
# SK-MEL-28 melanoma = test system: SK-MEL-28 melanoma
# NCI-H23 lung = test system: NCI-H23 lung
# PC-3 prostate = test system: PC-3 prostate
# NCI-H460 lung = test system: NCI-H460 lung
# SK-OV-3 ovarian = test system: SK-OV-3 ovarian
# ACHN renal = test system: ACHN renal
# SW-620 colon = test system: SW-620 colon
# A498 renal = test system: A498 renal
# OVCAR-3 ovarian = test system: OVCAR-3 ovarian
# HL-60(TB) leukemia = test system: HL-60(TB) leukemia
# UACC-257 melanoma = test system: UACC-257 melanoma
# NCI-H522 lung = test system: NCI-H522 lung
# UO-31 renal = test system: UO-31 renal
# MDA-MB-435 = test system: MDA-MB-435
# KM12 colon = test system: KM12 colon
# DU-145 prostate = test system: DU-145 prostate
# EKVX NSCLC = test system: EKVX NSCLC
# SN12C renal = test system: SN12C renal
# A549 NSCLC = test system: A549 NSCLC
structure (smiles),measurement,setting,value
C=CC(=O)Nc1cc2c(Nc3ccc(F)c(Cl)c3)ncnc2cc1C#CC(C)(C)N1CCN(C)CC1,GI50,TK-10 renal,52.2 nM
same,TGI,TK-10 renal,2030 nM
same,GI50,IGROV1 ovarian,175 nM
same,TGI,IGROV1 ovarian,1400 nM
same,GI50,SF-539 CNS,1480 nM
same,TGI,SF-539 CNS,2990 nM
same,GI50,SR leukemia,746 nM
same,TGI,SR leukemia,5610 nM
same,GI50,SF-295 CNS,2940 nM
same,TGI,SF-295 CNS,6620 nM
same,GI50,MDA-MB-231 breast,1270 nM
same,TGI,MDA-MB-231 breast,2730 nM
same,GI50,M14 melanoma,2560 nM
same,TGI,M14 melanoma,5710 nM
same,GI50,UACC-62 melanoma,2940 nM
same,TGI,UACC-62 melanoma,5580 nM
same,GI50,RPMI-8226 leukemia,1770 nM
same,TGI,RPMI-8226 leukemia,5170 nM
same,GI50,CCRF-CEM leukemia,1240 nM
same,TGI,CCRF-CEM leukemia,5080 nM
same,GI50,BT-549 breast,1600 nM
same,TGI,BT-549 breast,3470 nM
same,GI50,HOP-92 NSCLC,290 nM
same,TGI,HOP-92 NSCLC,1780 nM
same,GI50,HCT-15 colon,1680 nM
same,TGI,HCT-15 colon,5110 nM
same,GI50,OVCAR-5 ovarian,1040 nM
same,TGI,OVCAR-5 ovarian,6170 nM
same,GI50,OVCAR-4 ovarian,1320 nM
same,TGI,OVCAR-4 ovarian,2860 nM
same,GI50,MCF7 breast,995 nM
same,TGI,MCF7 breast,3170 nM
same,GI50,NCI-H226 lung,4060 nM
same,TGI,NCI-H226 lung,6040 nM
same,GI50,HT29 colon,1560 nM
same,TGI,HT29 colon,4090 nM
same,GI50,HS 578T breast,2280 nM
same,TGI,HS 578T breast,8470 nM
same,GI50,786-0 renal,1310 nM
same,TGI,786-0 renal,2820 nM
same,GI50,OVCAR-8 ovarian,1850 nM
same,TGI,OVCAR-8 ovarian,5350 nM
same,GI50,MALME-3M melanoma,1490 nM
same,TGI,MALME-3M melanoma,5050 nM
same,GI50,T-47D breast,752 nM
same,TGI,T-47D breast,5320 nM
same,GI50,SK-MEL-5 melanoma,4690 nM
same,TGI,SK-MEL-5 melanoma,7420 nM
same,GI50,SF-268 CNS,1840 nM
same,TGI,SF-268 CNS,5510 nM
same,GI50,U251 CNS,2660 nM
same,TGI,U251 CNS,5480 nM
same,GI50,HCT-116 colon,1520 nM
same,TGI,HCT-116 colon,3010 nM
same,GI50,RXF 393 renal,837 nM
same,TGI,RXF 393 renal,2150 nM
same,GI50,SNB-19 CNS,3580 nM
same,TGI,SNB-19 CNS,5050 nM
same,GI50,HCC-2998 colon,1830 nM
same,TGI,HCC-2998 colon,4250 nM
same,GI50,HOP-62 NSCLC,3530 nM
same,TGI,HOP-62 NSCLC,5900 nM
same,GI50,LOX IMVI melanoma,1270 nM
same,TGI,LOX IMVI melanoma,2650 nM
same,GI50,SK-MEL-2 melanoma,2980 nM
same,TGI,SK-MEL-2 melanoma,5540 nM
same,GI50,COLO 205 colon,2090 nM
same,TGI,COLO 205 colon,5430 nM
same,GI50,CAKI-1 renal,973 nM
same,TGI,CAKI-1 renal,4050 nM
same,GI50,K-562 leukemia,1050 nM
same,TGI,K-562 leukemia,6590 nM
same,GI50,SNB-75 CNS,1160 nM
same,TGI,SNB-75 CNS,3860 nM
same,GI50,MOLT-4 leukemia,1050 nM
same,TGI,MOLT-4 leukemia,5160 nM
same,GI50,NCI/ADR-RES ovarian,2460 nM
same,TGI,NCI/ADR-RES ovarian,7650 nM
same,GI50,SK-MEL-28 melanoma,3100 nM
same,TGI,SK-MEL-28 melanoma,5670 nM
same,GI50,NCI-H23 lung,1720 nM
same,TGI,NCI-H23 lung,3780 nM
same,GI50,PC-3 prostate,1930 nM
same,TGI,PC-3 prostate,5310 nM
same,GI50,NCI-H460 lung,2910 nM
same,TGI,NCI-H460 lung,6690 nM
same,GI50,SK-OV-3 ovarian,953 nM
same,TGI,SK-OV-3 ovarian,4590 nM
same,GI50,ACHN renal,77.9 nM
same,TGI,ACHN renal,4260 nM
same,GI50,SW-620 colon,2000 nM
same,TGI,SW-620 colon,4610 nM
same,GI50,A498 renal,1210 nM
same,TGI,A498 renal,3940 nM
same,GI50,OVCAR-3 ovarian,1130 nM
same,TGI,OVCAR-3 ovarian,2850 nM
same,GI50,HL-60(TB) leukemia,1880 nM
same,TGI,HL-60(TB) leukemia,5080 nM
same,GI50,UACC-257 melanoma,3960 nM
same,TGI,UACC-257 melanoma,5560 nM
same,GI50,NCI-H522 lung,456 nM
same,TGI,NCI-H522 lung,2280 nM
same,GI50,UO-31 renal,244 nM
same,TGI,UO-31 renal,4400 nM
same,GI50,MDA-MB-435,1500 nM
same,TGI,MDA-MB-435,3900 nM
same,GI50,KM12 colon,2360 nM
same,TGI,KM12 colon,5750 nM
same,GI50,DU-145 prostate,1110 nM
same,TGI,DU-145 prostate,4860 nM
same,GI50,EKVX NSCLC,246 nM
same,TGI,EKVX NSCLC,4390 nM
same,GI50,SN12C renal,572 nM
same,TGI,SN12C renal,2510 nM
same,GI50,A549 NSCLC,2640 nM
